Laboratory results as given in patent US8071631B2, “Small molecule inhibitors of kynurenine-3-monooxygenase” (The J. David Gladstone Institutes, A Testamentary Trust …, priority 2006, dated 2011).

Each molecule was assayed on kynurenine-3-monooxygenase (KMO) (assay: KMO inhibition, radiometric assay per Erickson et al. (release of 3H2O from L-[3,5-3H]-kynurenine)). Settings: compound at 10 μM.
Assay type: biochemical
Experimental: The KMO inhibiting activities of the compounds of the present invention were evaluated using standard methods. See Erickson et al., A Radiometric Assay for Kynurenine 3-Hydroxylase Based on the Release of ^3H2O During Hydroxylation of L-[3,5-^3H]-Kynurenine, Anal. Biochem. 1992, 205, 257-262, the disclosure of which is hereby incorporated by reference.
The IC50 value is the half maximal inhibitory concentration and represents the concentration of an inhibitor that is required for 50% inhibition of an enzyme activity and the percent inhibition measures the amount of enzyme activity inhibited at a given concentration of compound. If the administered compound is a prodrug then the prodrug may not inhibit KMO until it has metabolized appropriately.

Row | SMILES | % inhibition at 10 μM [%]
1 | COc1ccc(S(=O)(=O)Nc2ccc(-c3ccccc3)cn2)cc1OC [Compound A25, 3,4-dimethoxy-N-[5-(phenyl)-pyridine-2-yl]benzenesulfonamide] | 24.8
2 | COc1ccc(S(=O)(=O)[N-]c2cccc(-c3ccccc3)c2)cc1OC.[K+] [Compound A22, Potassium 3,4-dimethoxy-N-[biphenyl-3-yl]benzenesulfonamide] | 19.57
3 | Cc1ccc(S(=O)(=O)Nc2cc(-c3ccccc3)no2)cc1 [Compound A14, 4-methyl-N-[3-(phenyl)-isoxazol-5-yl]benzenesulfonamide] | 30.74
4 | COc1ccc(S(=O)(=O)Nc2cc(-c3ccccc3)no2)cc1OC [Compound A13, 3,4-dimethoxy-N-[3-(phenyl)-isoxazol-5-yl]benzenesulfonamide] | 17.82
5 | COc1ccc(-c2cnc(NS(=O)(=O)c3ccc(OC)c(OC)c3)nc2)cc1 [Compound A23, 3,4-dimethoxy-N-[5-(4-methoxyphenyl)-pyrimidine-2-yl]benzenesulfonamide] | 17.5
6 | COc1ccc(S(=O)(=O)Nc2nsc(-c3ccc(Cl)cc3)n2)cc1OC [Compound A19, 3,4-dimethoxy-N-[5-(4-chlorophenyl)-1,2,4-thiadiazole-3-yl]benzenesulfonamide] | 68.6
7 | COc1ccc(S(=O)(=O)Nc2nnc(-c3ccccc3)s2)cc1OC [Compound A5, 3,4-dimethoxy-N-[5-(phenyl)-1,3,4-thiadiazol-2-yl]benzenesulfonamide] | 60.03

The remaining lines, values ahead:

Row | % inhibition at 10 μM [%] | SMILES
8 | 73.61 | COc1ccc(S(=O)(=O)Nc2nc(-c3ccccc3)ns2)cc1OC [Compound A1, 3,4-dimethoxy-N-[3-(phenyl)-1,2,4-thiadiazol-5-yl]benzenesulfonamide]
9 | 77.9 | Cc1ccc(S(=O)(=O)Nc2nc(-c3ccccc3)ns2)cc1 [Compound A2, 4-methyl-N-[3-(phenyl)-1,2,4-thiadiazol-5-yl]benzenesulfonamide]
10 | 71.59 | Cc1ccc(S(=O)(=O)Nc2nnc(-c3ccccc3)s2)cc1 [Compound A6, 4-methyl-N-[5-(phenyl)-1,3,4-thiadiazol-2-yl]benzenesulfonamide]
